This is an account of results in patent publication US11896591B2, “Compositions and methods for preparing and using mitochondrial uncouplers” (UNIVERSITY OF VIRGINIA PATENT FOUNDATION, priority 2017, dated 2024).

One may read the EC50 as the midpoint of the concentration-response curve.

The subject of assay [1] is STAM mouse model of fatty liver disease. Nature of the assay: STAM mouse model of fatty liver disease (NALFD criteria: steatosis, inflammation, ballooning). Format: in vivo.
For assay [2], the system named is Diet-induced Obesity Mouse Model. Kind of assay: Diet Induced Obesity Mouse Study. The assay is classed as in vivo, Male C57B/6J mice. As for the experimental part: Male C57B/6J mice aged 3 months (n=6) are assigned to one of three treatment groups: normal chow diet (Chow), western diet (WD) or western diet containing compound 4c (WD+4c). Mice fed WD and WD 4c are individually housed and given 3 grams of fresh food daily. WD+4c contained a dose of 4c equivalent to 50 mg/kg/day. For all treatments pre-weighed food is placed in cages and food intake is calculated daily. Fat and lean mass are measured by EchoMRI. Fat and lean mass for mice given the high fat Western Diet or the Western Diet with the compound 4c was determined by Echo MRI and shown in FIG. 6.

Assay [3] deals with whole cells. Kind of assay: Oxygen consumption rate (OCR) in whole cells, Seahorse XF-24 Flux Analyzer. As to conditions: for EC50: binned EC50 values, increase in oxygen consumption rate in whole cells. Format: cell-based. As for the experimental part:
Biological activities of the compounds synthesized is determined by determining increase in oxygen consumption rate (OCR).
OCR is measured using a Seahorse XF-24 Flux Analyzer (Seahorse Biosciences, North Billerica, MA). NMuLi, C2C12, and L6 cells are seeded in a Seahorse 24-well tissue culture plate at a density of 3.5×10^4 cells/well, isolated cardiomyocytes at a density of 4×10^4 cells/well, and human primary fibroblasts at a density of 1.1×10^4 cells/well. The cells are then allowed to adhere for 24 h. […] Compounds are injected during the assay and OCR is measured using 2 min measurement periods.
2-3 wells are used per condition and averaged over three plates (n=6-9). Statistical significance is determined by two-way ANOVA with Bonferroni's posttest.

The conditions of assay [4]: patients consuming ˜300 mg/d, over several months, without changes in food intake; cited from earlier work.

Entries after “also recorded” stand apart in the source; their conditions may differ.

Regarding `Fc1cccc(Nc2nc3nonc3nc2Nc2ccccc2F)c1` [Compound 4c, N^5-(2-fluorophenyl)-N^6-(3-fluorophenyl)-[1,2,5]oxadiazolo[3,4-b]pyrazine-5,6-diamine], in assay [1] (STAM mouse model (FIG. 3)), the Anti-inflammatory effects entry was “anti-inflammatory effects”. Also, the “Combined NALFD score” value in assay [1] (based on the steatosis, inflammation and ballooning assays, vs BAM15) is “significantly lower NALFD score than BAM15”. In assay [2] (WD + 50 mg/kg/day compound 4c vs WD), the Glucose tolerance test entry was “significantly improved glucose tolerance”. In assay [2] (WD + 4c 50 mg/kg/day vs WD, EchoMRI), the Lean mass result is “without losing lean mass; also recorded: substantially the same lean mass”. The Food intake result in assay [2] (WD + 4c vs WD) is “without a significant change in food intake”. The Fat mass entry in assay [2] (Western Diet (WD) + 4c 50 mg/kg/day vs WD, EchoMRI) is reported as “gain less fat mass; also recorded: gained significantly less fat mass”. This molecule also had an EC50 in assay [3] of less than 5 µM. In addition, the “Oxygen consumption rate as a function of drug dose” value in assay [3] (compared with BAM15 or FCCP (FIG. 1, FIG. 2)) is on record as “higher oxygen consumption rate than mitochondrial uncouplers, BAM15 or FCCP; also recorded: consistently high oxygen consumption rate than the mitochondrial uncoupler BAM15”.
In turn, `Cn1c(C(F)(F)F)nc2nc(Nc3ccccc3C(F)(F)F)c(Nc3ccccc3C(F)(F)F)nc21` [Compound 13c, N^5,N^6-bis(2-(trifluoromethyl)phenyl)-1-methyl-2-(trifluoromethyl)-imidazo[4,5-b]pyrazine-5,6-diamine] gave an EC50 in assay [3] of 5 to 20 µM.
As to `Cn1c(C(F)(F)F)nc2nc(Nc3cc(C(F)(F)F)cc(C(F)(F)F)c3)c(Nc3cc(C(F)(F)F)cc(C(F)(F)F)c3)nc21` [Compound 13d, N^5,N^6-bis(3,5-bis(trifluoromethyl)phenyl)-1-methyl-2-(trifluoromethyl)-imidazo[4,5-b]pyrazine-5,6-diamine], in assay [3], the EC50 lay in the range of 5 to 20 µM.
Consider `Cn1c(C(F)(F)F)nc2nc(Nc3cccc(C(F)(F)F)c3F)c(Nc3cccc(C(F)(F)F)c3F)nc21` [Compound 13e, N^5,N^6-bis(2-fluoro-3-(trifluoromethyl)phenyl)-1-methyl-2-(trifluoromethyl)-imidazo[4,5-b]pyrazine-5,6-diamine], for which the concentration for a half-maximal effect (EC50) in assay [3] was 5 to 20 µM.
With `Cn1c(C(F)(F)F)nc2nc(Nc3ccc(OC(F)(F)F)c(F)c3)c(Nc3ccc(OC(F)(F)F)c(F)c3)nc21` [Compound 13f, N^5,N^6-bis(3-fluoro-4-(trifluoromethoxy)phenyl)-1-methyl-2-(trifluoromethyl)-imidazo[4,5-b]pyrazine-5,6-diamine], the EC50 in assay [3] was in the range of 5 to 20 µM.
Consider `Cn1c(C(F)(F)F)nc2nc(Nc3ccc(C(F)(F)F)cc3F)c(Nc3ccc(C(F)(F)F)cc3F)nc21` [Compound 13g, N^5,N^6-bis(2-fluoro-4-(trifluoromethyl)phenyl)-1-methyl-2-(trifluoromethyl)-imidazo[4,5-b]pyrazine-5,6-diamine], for which, in assay [3], the EC50 was less than 5 µM.
Take `Cn1c(C(F)(F)F)nc2nc(Nc3ccc(C(F)(F)F)c(F)c3)c(Nc3ccc(C(F)(F)F)c(F)c3)nc21` [Compound 13h, N^5,N^6-bis(3-fluoro-4-(trifluoromethyl)phenyl)-1-methyl-2-(trifluoromethyl)-imidazo[4,5-b]pyrazine-5,6-diamine]: the half-maximal effective concentration (EC50) in assay [3] was more than 20 µM.
`Cn1c(C(F)(F)F)nc2nc(Nc3cc(F)cc(F)c3)c(Nc3cc(F)cc(F)c3)nc21` [Compound 13i, N^5,N^6-bis(3,5-difluorophenyl)-1-methyl-2-(trifluoromethyl)-imidazo[4,5-b]pyrazine-5,6-diamine] gave an EC50 in assay [3] of 5 to 20 µM.
Still for that read-out and setting: the same measure for `Cn1c(C(F)(F)F)nc2nc(Nc3cccc(F)c3F)c(Nc3cccc(F)c3F)nc21` [Compound 13j, N^5,N^6-bis(2,3-difluorophenyl)-1-methyl-2-(trifluoromethyl)-imidazo[4,5-b]pyrazine-5,6-diamine]: more than 20 µM.
For `Cc1ccc(Nc2nc3nc(C(F)(F)F)n(C)c3nc2Nc2ccc(C)cc2)cc1` [Compound 13k, 1-Methyl-N^5,N^6-di-p-tolyl-2-(trifluoromethyl)-imidazo[4,5-b]pyrazine-5,6-diamine], in assay [3], the EC50 was more than 20 µM.
In the case of `Cn1c(C(F)(F)F)nc2nc(Nc3ccc(OC(F)(F)F)cc3)c(Nc3ccc(OC(F)(F)F)cc3)nc21` [Compound 13m, 1-Methyl-N^5,N^6-bis(4-(trifluoromethoxy)phenyl)-2-(trifluoromethyl)-imidazo[4,5-b]pyrazine-5,6-diamine], in assay [3], the EC50 is 5 to 20 µM.
For `Cn1c(C(F)(F)F)nc2nc(Nc3ccccc3F)c(Nc3ccc(OC(F)(F)F)cc3)nc21` [Compound 13p, 1-Methyl-N^5-(2-fluorophenyl)-N^6-(4-(trifluoromethoxy)phenyl)-2-(trifluoromethyl)-imidazo[4,5-b]pyrazine-5,6-diamine], in assay [3], the EC50 was more than 20 µM.
Take `Cn1c(C(F)(F)F)nc2nc(Nc3ccccc3F)c(Nc3cc(C(F)(F)F)cc(C(F)(F)F)c3)nc21` [Compound 13q, 1-Methyl-N^5-(2-fluorophenyl)-N^6-(3,5-bis(trifluoromethyl)phenyl)-2-(trifluoromethyl)-imidazo[4,5-b]pyrazine-5,6-diamine]: in assay [3], the EC50 was more than 20 µM.
On the same count and under the same terms, the same measure for `COc1ccc(Nc2nc3c(nc2Nc2ccccc2F)nc(C(F)(F)F)n3C)cc1` [Compound 13r, 1-Methyl-N^5-(2-fluorophenyl)-N^6-(4-methoxyphenyl)-2-(trifluoromethyl)-imidazo[4,5-b]pyrazine-5,6-diamine]: more than 20 µM.
Same read-out and setting: the same measure for `Cn1c(C(F)(F)F)nc2nc(Nc3ccccc3F)c(Nc3ccccc3)nc21` [Compound 13s, 1-Methyl-N^5-(2-fluorophenyl)-N^6-phenyl-2-(trifluoromethyl)-imidazo[4,5-b]pyrazine-5,6-diamine]: more than 20 µM; for `Cn1c(C(F)(F)F)nc2nc(Nc3ccccc3F)c(Nc3cccc(C(F)(F)F)c3F)nc21` [Compound 13t, 1-Methyl-N^5-(2-fluorophenyl)-N^6-(2-fluoro-3-(trifluoromethyl)phenyl)-2-(trifluoromethyl)-imidazo[4,5-b]pyrazine-5,6-diamine]: more than 20 µM; for `Cc1ccc(Nc2nc3c(nc2Nc2ccccc2F)nc(C(F)(F)F)n3C)cc1` [Compound 13u, 1-Methyl-N^5-(2-fluorophenyl)-N^6-(p-tolyl)-2-(trifluoromethyl)-imidazo[4,5-b]pyrazine-5,6-diamine]: more than 20 µM.
In turn, `Cn1c(C(F)(F)F)nc2nc(Nc3ccccc3F)c(NC3CCCCC3)nc21` [Compound 13v, 1-Methyl-N^5-(2-fluorophenyl)-N^6-cyclohexyl-2-(trifluoromethyl)-imidazo[4,5-b]pyrazine-5,6-diamine] yielded an EC50 in assay [3] of more than 20 µM.
For `CCCNc1nc2c(nc1Nc1ccccc1F)nc(C(F)(F)F)n2C` [Compound 13w, 1-Methyl-N^5-(2-fluorophenyl)-N^6-propyl-2-(trifluoromethyl)-imidazo[4,5-b]pyrazine-5,6-diamine], in assay [3], the EC50 is more than 20 µM.
Regarding `Cn1c(C(F)(F)F)nc2nc(Nc3ccccc3F)c(NCCC(F)(F)F)nc21` [Compound 13x, 1-Methyl-N^5-(2-fluorophenyl)-N^6-3,3,3-trifluoropropyl-2-(trifluoromethyl)-imidazo[4,5-b]pyrazine-5,6-diamine], the EC50 in assay [3] was more than 20 µM.
Same read-out and setting: the same measure for `COC(=O)n1c(C(F)(F)F)nc2nc(Nc3ccccc3F)c(Nc3ccccc3F)nc21` [Compound 14a, Methyl 5,6-bis((2-fluorophenyl)amino)-2-(trifluoromethyl)-imidazo[4,5-b]pyrazine-1-carboxylate]: 5 to 20 µM; for `COC(=O)n1c(C(F)(F)F)nc2nc(Nc3cc(F)cc(F)c3)c(Nc3cc(F)cc(F)c3)nc21` [Compound 14c, Methyl 5,6-bis((3,5-difluorophenyl)amino)-2-(trifluoromethyl)-imidazo[4,5-b]pyrazine-1-carboxylate]: 5 to 20 µM; for `FC(F)(F)c1cccc(Nc2nccnc2Nc2cccc(C(F)(F)F)c2)c1` [Compound 16b, N^2,N^3-bis(3-(trifluoromethyl)phenyl)pyrazine-2,3-diamine]: less than 5 µM.
Consider `FC(F)(F)c1ccc(Nc2nccnc2Nc2ccc(C(F)(F)F)cc2)cc1` [Compound 16c, N^2,N^3-bis(4-(trifluoromethyl)phenyl)pyrazine-2,3-diamine], for which the EC50 in assay [3] is less than 5 µM.
With `FC(F)(F)c1cc(Nc2nccnc2Nc2cc(C(F)(F)F)cc(C(F)(F)F)c2)cc(C(F)(F)F)c1` [Compound 16f, N^2,N^3-bis(3,5-bis(trifluoromethyl)phenyl)pyrazine-2,3-diamine], the EC50 in assay [3] is 5 to 20 µM.
`Fc1cc(C(F)(F)F)ccc1Nc1nccnc1Nc1ccc(C(F)(F)F)cc1F` [Compound 16h, N^2,N^3-bis(2-fluoro-4-(trifluoromethyl)phenyl)pyrazine-2,3-diamine] came in with an EC50 in assay [3] of 5 to 20 µM.
On the same count and under the same terms, the same measure for `FC(F)(F)Oc1ccc(Nc2nccnc2Nc2ccc(OC(F)(F)F)cc2)cc1` [Compound 16n, N^2,N^3-bis(4-(trifluoromethoxy)phenyl)pyrazine-2,3-diamine]: less than 5 µM.
As for `O=[N+]([O-])c1ccc(O)c([N+](=O)[O-])c1` [DNP, 2,4-dinitrophenol], in assay [4], the Weight loss is 1.5 pounds per week.
